# Reference: article PMC10597649, “Effect of Astragali radix extract on pharmacokinetic behavior of dapagliflozin in healthy and type 2 diabetic rats” (Frontiers in Pharmacology, 2023)
# Read-outs that look alike come from different tables or passages of the source.
# Assays:
# [1] = Pharmacokinetics of DAPA in healthy rats (alone or co-administered with ARE), plasma by UPLC-MS/MS; assay type: in vivo, Sprague Dawley (SD) rats; settings: for MRT last: read-out: MRT(0-t)
# Experimental: The column temperature was maintained at 40°C. […] The sample injection volume was 2 μL. […] The ion spray voltage was set at […]. […] The source temperature was kept at 200°C. The collision gas was set at low flow rate. […] The samples were processed by the procedure described above.
# [2] = for Accuracy (RE, %): rat plasma, n = 6
# Experimental: Stability of DAPA in rat plasma was evaluated by analyzing six replicates of QC samples at low and high concentrations under different conditions. Short-term stability was investigated by keeping the samples at room temperature (25°C) for 12 h and autosampler (4°C) for 24 h, respectively. Freeze-thaw stability was investigated by three freeze-thawing cycles, i.e., the samples were frozen for 7 d at -80°C and thawed 3 h at room temperature for each cycle. Long-term stability was investigated by keeping the samples at -80°C for 1 month.
# [3] = ref Kasichayanula et al., 2011, cited from earlier work
# [4] = ref Kasichayanula et al., 2013, cited from earlier work
# [5] = CD group: healthy rats, DAPA alone, single intragastric dose 1.05 mg/kg, n = 6, mean ± SD
# [6] = CDA group compared to CD group (healthy rats, with ARE versus DAPA alone)
# [7] = CDA group: healthy rats, ARE 300 mg/kg intragastric once a day for 7 days + DAPA single dose 1.05 mg/kg on day 7, n = 6, mean ± SD
# [8] = CDA-H group: healthy rats, ARE 900 mg/kg once a day for 7 days + DAPA single dose 1.05 mg/kg on day 7, n=6, mean ± SD
# [9] = CDA-L group: healthy rats, ARE 300 mg/kg once a day for 7 days + DAPA single dose 1.05 mg/kg on day 7, n=6, mean ± SD
# [10] = male, Sprague-Dawley, rat, plasma, po, 1.05 mg/kg, CD group: healthy rats, DAPA alone, single intragastric dose 1.05 mg/kg, n = 6, mean ± SD
# [11] = male, Sprague-Dawley, rat, plasma, po, 1.05 mg/kg, CDA-H group: healthy rats, ARE 900 mg/kg once a day for 7 days + DAPA single dose 1.05 mg/kg on day 7, n=6, mean ± SD
# [12] = male, Sprague-Dawley, rat, plasma, po, 1.05 mg/kg, CDA-L group: healthy rats, ARE 300 mg/kg once a day for 7 days + DAPA single dose 1.05 mg/kg on day 7, n=6, mean ± SD
# [13] = male, Sprague-Dawley, rat, plasma, po, CDA group: healthy rats, ARE 300 mg/kg intragastric once a day for 7 days + DAPA single dose 1.05 mg/kg on day 7, n = 6, mean ± SD
smiles,measurement,setting,value
"CCOc1ccc(Cc2cc([C@@H]3O[C@H](CO)[C@@H](O)[C@H](O)[C@H]3O)ccc2Cl)cc1 [DAPA, Dapagliflozin]",AUC(0-inf),[1]; [5],3868.26±344.05 h*(ng/mL)
same,AUC(0-t),[1]; [5],3810.20±343.81 h*(ng/mL)
same,CL,[1]; [5],273.31±25.26 (mL/h)/kg
same,V,[1]; [5],1.42595 ± 0.16328 L/kg
same,decrease of MRT,[1]; [6],25.11%
same,decrease of t max,[1]; [6],55.91%
same,increase of C max,[1]; [6],30.99%
same,AUC(0-inf),[1]; [7],3845.72±851.15 h*(ng/mL)
same,AUC(0-t),[1]; [7],3783.24±852.77 h*(ng/mL)
same,C max,[1]; [7],504.33 ± 99.44 ng/mL
same,CL,[1]; [7],283.83±58.84 (mL/h)/kg
same,V,[1]; [7],1.5704 ± 0.40141 L/kg
same,AUC(0-inf),[1]; [8],3946.77±756.89 h*(ng/mL)
same,AUC(0-t),[1]; [8],3868.01±745.36 h*(ng/mL)
same,CL,[1]; [8],273.49±46.98 (mL/h)/kg
same,V,[1]; [8],1.55445 ± 0.21969 L/kg
same,AUC(0-inf),[1]; [9],3845.72±851.15 h*(ng/mL)
same,AUC(0-t),[1]; [9],3783.24±852.77 h*(ng/mL)
same,CL,[1]; [9],283.83±58.84 (mL/h)/kg
same,Cmax,[1]; [9],504.33 ± 99.44 ng/mL
same,V,[1]; [9],1.5704 ± 0.40141 L/kg
same,"difference of t 1/2, AUC(0-t), AUC(0-inf), V and CL",[1]; between the CD group and the CDA group (healthy rats),no significant difference
same,Tmax,[1]; [10],5.67 ± 0.82 h
same,half-life,[1]; [10],3.61 ± 0.21 h
same,Cmax,"[1]; male, Sprague-Dawley, rat, plasma, po, 1.05 mg/kg, CD group: healthy rats, DAPA alone, single intragastric dose 1.05 mg/kg, n = 6, mean ± SD, read-out: C max",385 ± 46 ng/mL
same,MRT last,[1]; [10],6.89 ± 0.28 h
same,Tmax,[1]; [11],2.61 ± 0.9 h
same,half-life,[1]; [11],3.96 ± 0.17 h
same,Cmax,"[1]; male, Sprague-Dawley, rat, plasma, po, 1.05 mg/kg, CDA-H group: healthy rats, ARE 900 mg/kg once a day for 7 days + DAPA single dose 1.05 mg/kg on day 7, n=6, mean ± SD, read-out: Cmax",538 ± 123 ng/mL
same,MRT last,[1]; [11],5.04 ± 0.27 h
same,Tmax,[1]; [12],2.5 ± 1.22 h
same,half-life,[1]; [12],3.8 ± 0.22 h
same,MRT last,[1]; [12],5.16 ± 0.36 h
same,Tmax,[1]; [13],2.5 ± 1.22 h
same,half-life,[1]; [13],3.8 ± 0.22 h
same,MRT last,[1]; [13],5.16 ± 0.36 h
same,"Accuracy (RE, %)","[2]; freeze thaw (3 cycles, 7 d at -80°C, thawed 3 h at room temperature), 33.5 ng/mL",-4.72%
same,"Accuracy (RE, %)","[2]; freeze thaw (3 cycles, 7 d at -80°C, thawed 3 h at room temperature), 975 ng/mL",-3.71%
same,"Accuracy (RE, %)","[2]; long term (-80°C, 30d), 33.5 ng/mL",-2.96%
same,"Accuracy (RE, %)","[2]; long term (-80°C, 30d), 975 ng/mL",-2.97%
same,"Accuracy (RE, %)","[2]; refrigerator (4°C, 24 h), 33.5 ng/mL",-1.37%
same,"Accuracy (RE, %)","[2]; refrigerator (4°C, 24 h), 975 ng/mL",-2.63%
same,"Accuracy (RE, %)","[2]; room temperature (25°C, 12 h), 33.5 ng/mL",-1.19%
same,"Accuracy (RE, %)","[2]; room temperature (25°C, 12 h), 975 ng/mL",-2.87%
same,Stability in the rat plasma,"[2]; room temperature (25°C) for 12 h, 4°C for 24 h, -80°C for 30 days, three freeze-thaw cycles",stable
same,increase of C max,[3]; patients with mild liver function damage versus healthy subjects,12%
same,increase of C max,[3]; patients with moderate liver function damage versus healthy subjects,12%
same,increase of C max,[3]; patients with severe liver function damage versus healthy subjects,40%
same,increase of C max,[4]; T2DM patients with mild renal function damage versus T2DM patient without,4%
same,increase of C max,[4]; T2DM patients with moderate renal function damage versus T2DM patient without,6%
same,increase of C max,[4]; T2DM patients with severe renal function damage versus T2DM patient without,9%
